# Reference: US20240150367A1, “NITROGEN-CONTAINING SPIRO CYCLIC COMPOUNDS AND PHARMACEUTICAL USE THEREOF” (Japan Tobacco Inc., priority 2009, published 2024)
# Legend:
# [1] = target: hJAK3 kinase domain (aa781-end) (Homo sapiens (Human), UniProt P52333); assay: JAK3 activity inhibition, kinase reaction (Test 1); conditions: for inhibition at 1 µM: read-out: JAK3 % Inhibition; for IC50: read-out: JAK3 IC50
# Description: JAK3 activity inhibitory effects of test compounds were evaluated by the following kinase reactions.
# In the kinase reactions, fused proteins (6His tag-fused hJAK3 kinase domain (aa781-end)) which were coexpressed in Sf21 cells and purified by Ni2+/NTA agarose were used.
# A well in which ATP was not added was set out as a blank well.
# Plates were let stand at room temperature for 10 minutes from starting reactions.
# One hour after the addition of the buffer for detection, fluorescence counts of each well were measured by a fluorescence microplate reader.
# Data were obtained by deducting the average Ratio of a blank well from Ratio of each well.
# [2] = target: hJAK2 kinase domain (aa808-end) (Homo sapiens (Human), UniProt O60674); assay: JAK2 activity inhibition, kinase reaction (Test 2); type: biochemical
# Chain of hJAK2 kinase domain (aa808-end) (O60674 808-1132 limits assumed): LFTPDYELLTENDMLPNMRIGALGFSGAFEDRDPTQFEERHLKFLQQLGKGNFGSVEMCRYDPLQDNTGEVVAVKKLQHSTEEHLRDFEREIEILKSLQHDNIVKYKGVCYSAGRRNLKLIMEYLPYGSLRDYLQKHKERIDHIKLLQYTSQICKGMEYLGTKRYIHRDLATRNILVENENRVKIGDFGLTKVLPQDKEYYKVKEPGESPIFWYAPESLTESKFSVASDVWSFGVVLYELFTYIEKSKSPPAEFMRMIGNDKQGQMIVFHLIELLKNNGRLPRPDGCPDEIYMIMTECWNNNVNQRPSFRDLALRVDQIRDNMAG
# Chain of hJAK3 kinase domain (aa781-end) (P52333 781-1124 limits assumed): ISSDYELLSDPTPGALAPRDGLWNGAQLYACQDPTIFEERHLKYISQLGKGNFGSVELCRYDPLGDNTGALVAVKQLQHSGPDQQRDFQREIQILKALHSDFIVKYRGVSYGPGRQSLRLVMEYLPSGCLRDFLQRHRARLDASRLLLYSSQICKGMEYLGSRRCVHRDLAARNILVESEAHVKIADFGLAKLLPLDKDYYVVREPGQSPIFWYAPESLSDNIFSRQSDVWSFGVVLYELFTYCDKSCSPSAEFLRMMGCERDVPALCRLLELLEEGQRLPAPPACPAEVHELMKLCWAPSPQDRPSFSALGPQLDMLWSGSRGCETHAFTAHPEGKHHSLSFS
Compound,IC50 [1] [µM],further results
N#CC1CCN(C(=O)N2CCCC23CCN(c2ncnc4[nH]ccc24)C3)C1 (racemic) [Compound 51],,inhibition at 1 µM [1]: 41%
c1nc(N2CCCC3(CCCCCN3)C2)c2cc[nH]c2n1 (racemic) [Compound 75],,inhibition at 1 µM [1]: 1%
c1nc(N2CCC3(CCCCN3)C2)c2cc[nH]c2n1 (racemic) [Compound 79],,inhibition at 1 µM [1]: 38%
CC(=O)N1CCCC12CCN(c1ncnc3[nH]ccc13)C2 (racemic) [Compound 87],,inhibition at 1 µM [1]: 39%
N#CCC(=O)N1CCCC12CCCN(c1c(Cl)cnc3[nH]ncc13)C2 (racemic) [Compound 91],,inhibition at 1 µM [1]: 42%
"CC1CN(C(=O)CC#N)C12CCCN(c1ncnc3[nH]ccc13)C2 (single isomer, unassigned) [Compound 1, 3-[3-methyl-6-(7H-pyrrolo[2,3-d]pyrimidin-4-yl)-1,6-diazaspiro[3.5]non-1-yl]-3-oxopropionitrile]",,IC50 [2]: 0.001 µM
"CC1CN(C(=O)CC#N)C12CCCN(c1ncnc3[nH]ccc13)C2 (single isomer, unassigned) [Compound 2, 3-[3-methyl-6-(7H-pyrrolo[2,3-d]pyrimidin-4-yl)-1,6-diazaspiro[3.5]non-1-yl]-3-oxopropionitrile]",,IC50 [2]: 0.0017 µM
"CC(O)C(=O)N1CCCC12CCCN(c1ncnc3[nH]ccc13)C2 (single isomer, unassigned) [Compound 30]",0.58,
"CC1CC2(CCCN2C(=O)CC#N)CN1c1ncnc2[nH]ccc12 (single isomer, unassigned) [Compound 33]",0.48,
"CC1N(c2ncnc3[nH]ccc23)CCC12CCCN2C(=O)CC#N (single isomer, unassigned) [Compound 34]",0.036,
"CC(O)C(=O)N1CCCC12CCCN(c1ncnc3[nH]ccc13)C2 (single isomer, unassigned) [Compound 35]",0.53,
"N#CCC(=O)N1CCC12CCCN(c1ncnc3[nH]ccc13)C2 (stereo not drawn) [Compound 3, 3-oxo-3-[6-(7H-pyrrolo[2,3-d]pyrimidin-4-yl)-1,6-diazaspiro[3.5]non-1-yl]-propionitrile]",,IC50 [2]: 0.0022 µM
"N#CCC(=O)N1CC(F)(F)C12CCN(c1ncnc3[nH]ccc13)C2 (stereo not drawn) [Compound 4, 3-[3,3-difluoro-6-(7H-pyrrolo[2,3-d]pyrimidin-4-yl)-1,6-diazaspiro[3.4]oct-1-yl]-3-oxopropionitrile]",,IC50 [2]: 0.0017 µM
"N#CCC(=O)N1CC(F)(F)C12CCCN(c1ncnc3[nH]ccc13)C2 (stereo not drawn) [Compound 5, 3-[3,3-difluoro-6-(7H-pyrrolo[2,3-d]pyrimidin-4-yl)-1,6-diaza-spiro[3.5]non-1-yl]-3-oxo-propionitrile]",,IC50 [2]: 0.0019 µM
"N#CCC(=O)N1CCCC12CCCN(c1ncnc3[nH]ccc13)C2 (stereo not drawn) [Compound 7, 3-oxo-3-[7-(7H-pyrrolo[2.3-d]pyrimidin-4-yl)-1,7-diazaspiro[4.5]dec-1-yl)propionitrile]",,IC50 [2]: 0.0047 µM
CC1N(c2ncnc3[nH]ccc23)CCC12CCCN2C(=O)CC#N (stereo not drawn) [Compound 13],,inhibition at 1 µM [1]: 26%
CC1CC2(CCCN(c3ncnc4[nH]ccc34)C2)N1C(=O)CC#N (stereo not drawn) [Compound 14],0.041,
CC1CC2(CCCN(c3ncnc4[nH]ccc34)C2)N1C(=O)CC#N (stereo not drawn) [Compound 20],0.1,

# Now from value to molecule, other results behind:
IC50 [1] [µM],Compound,further results
0.15,"CC(O)C(=O)N1CCCC12CCCN(c1ncnc3[nH]ccc13)C2 (single isomer, unassigned) [Compound 36]",
0.1,"CC1CC2(CCCN2C(=O)CC#N)CN1c1ncnc2[nH]ccc12 (single isomer, unassigned) [Compound 42]",
0.04,C[C@H](O)C(=O)N1CCCC12CCCN(c1ncnc3[nH]ccc13)C2 (stereo partly drawn) [Compound 43],
0.27,CO[C@@H](C)C(=O)N1CCCC12CCCN(c1ncnc3[nH]ccc13)C2 (stereo partly drawn) [Compound 45],
0.27,CO[C@H](C)C(=O)N1CCCC12CCCN(c1ncnc3[nH]ccc13)C2 (stereo partly drawn) [Compound 46],
0.11,CC(=O)O[C@@H](C)C(=O)N1CCCC12CCCN(c1ncnc3[nH]ccc13)C2 (stereo partly drawn) [Compound 47],
